target: T1, hNav1.7 and the β1 subunit (Homo sapiens, UniProt Q15858); assay: Tritiated compound competitive binding to membranes from cells heterologously expressing hNav1.7 and the β1 subunit (LBA); details: competition with 100 pM [3H]compound, 18 h, room temperature; IC50 by 4 parameter logistic model
T1 construct: expressed in transfected cells
How it was run: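 Membranes were incubated 18 h at room temperature with 100 pM [3H]-labelled NaV1.7 inhibitor and increasing test compound in 100 mM NaCl, 20 mM Tris HCl, pH 7.4. Bound radioligand was filtered on PEI-soaked GF/C, washed, and counted by scintillation. IC50 from a 4-parameter logistic fit of % inhibition.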

T1 sequence (Q15858 whole entry): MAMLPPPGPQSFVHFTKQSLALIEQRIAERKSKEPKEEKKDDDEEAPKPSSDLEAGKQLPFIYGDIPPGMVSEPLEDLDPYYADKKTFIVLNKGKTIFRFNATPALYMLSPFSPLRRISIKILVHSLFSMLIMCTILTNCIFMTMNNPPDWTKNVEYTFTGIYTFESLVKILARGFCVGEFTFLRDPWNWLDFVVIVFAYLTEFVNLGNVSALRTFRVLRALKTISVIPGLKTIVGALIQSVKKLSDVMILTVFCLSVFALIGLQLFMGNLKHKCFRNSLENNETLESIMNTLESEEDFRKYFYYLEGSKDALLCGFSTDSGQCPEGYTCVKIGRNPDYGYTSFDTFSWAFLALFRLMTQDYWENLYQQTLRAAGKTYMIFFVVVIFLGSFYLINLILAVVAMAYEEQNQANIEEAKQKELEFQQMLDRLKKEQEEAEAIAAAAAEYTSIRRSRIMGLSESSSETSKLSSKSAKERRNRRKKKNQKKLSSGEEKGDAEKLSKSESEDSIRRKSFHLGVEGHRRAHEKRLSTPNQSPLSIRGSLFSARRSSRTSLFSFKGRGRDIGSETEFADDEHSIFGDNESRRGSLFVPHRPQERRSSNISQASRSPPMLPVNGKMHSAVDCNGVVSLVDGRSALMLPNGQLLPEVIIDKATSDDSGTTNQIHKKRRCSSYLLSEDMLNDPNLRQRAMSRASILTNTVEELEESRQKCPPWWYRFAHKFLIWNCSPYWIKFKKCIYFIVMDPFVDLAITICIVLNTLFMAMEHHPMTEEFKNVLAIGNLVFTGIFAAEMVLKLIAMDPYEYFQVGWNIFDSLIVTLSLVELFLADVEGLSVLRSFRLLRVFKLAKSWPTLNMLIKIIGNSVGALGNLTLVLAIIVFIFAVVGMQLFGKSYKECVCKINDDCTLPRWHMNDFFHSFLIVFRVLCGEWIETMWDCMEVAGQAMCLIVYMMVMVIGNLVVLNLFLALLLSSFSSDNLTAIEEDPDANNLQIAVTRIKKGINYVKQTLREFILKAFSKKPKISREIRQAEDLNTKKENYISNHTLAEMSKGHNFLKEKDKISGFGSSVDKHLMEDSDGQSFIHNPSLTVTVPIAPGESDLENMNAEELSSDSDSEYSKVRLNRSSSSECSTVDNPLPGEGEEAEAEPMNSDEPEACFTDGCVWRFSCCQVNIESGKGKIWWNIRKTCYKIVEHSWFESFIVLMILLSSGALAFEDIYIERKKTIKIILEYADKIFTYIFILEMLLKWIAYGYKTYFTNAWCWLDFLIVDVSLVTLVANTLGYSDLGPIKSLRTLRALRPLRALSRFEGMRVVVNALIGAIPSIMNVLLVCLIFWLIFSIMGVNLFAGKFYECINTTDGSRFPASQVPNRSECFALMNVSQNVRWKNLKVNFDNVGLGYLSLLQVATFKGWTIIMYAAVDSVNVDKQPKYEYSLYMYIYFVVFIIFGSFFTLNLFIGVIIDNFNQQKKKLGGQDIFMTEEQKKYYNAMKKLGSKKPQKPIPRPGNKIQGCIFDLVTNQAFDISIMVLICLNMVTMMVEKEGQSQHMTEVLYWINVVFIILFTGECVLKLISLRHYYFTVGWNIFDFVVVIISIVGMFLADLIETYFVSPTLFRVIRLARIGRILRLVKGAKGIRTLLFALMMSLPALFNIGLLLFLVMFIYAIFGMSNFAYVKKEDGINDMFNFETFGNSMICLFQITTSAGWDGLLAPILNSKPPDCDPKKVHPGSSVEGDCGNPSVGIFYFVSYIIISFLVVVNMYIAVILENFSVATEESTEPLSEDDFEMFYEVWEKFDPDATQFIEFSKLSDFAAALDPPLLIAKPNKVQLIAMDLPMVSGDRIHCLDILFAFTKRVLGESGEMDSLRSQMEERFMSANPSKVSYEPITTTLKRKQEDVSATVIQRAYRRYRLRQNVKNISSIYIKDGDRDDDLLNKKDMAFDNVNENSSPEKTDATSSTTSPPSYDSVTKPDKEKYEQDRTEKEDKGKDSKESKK
T1 sequence (Q07699 19-218 partner): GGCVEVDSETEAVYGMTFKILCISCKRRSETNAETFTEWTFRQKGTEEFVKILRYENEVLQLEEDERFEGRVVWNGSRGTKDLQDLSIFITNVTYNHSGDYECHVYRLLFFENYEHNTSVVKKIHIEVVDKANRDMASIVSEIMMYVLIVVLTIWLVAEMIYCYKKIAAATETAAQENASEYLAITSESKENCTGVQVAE

| Structure (SMILES) | Nav1.7 (LBA) [µM] |
| --- | --- |
| O=S(=O)(Nc1ncns1)c1ccc2c(c1)OCC[C@@H]2NC(CCC(F)(F)F)c1ccccc1 (stereo partly drawn) [Example 207, (4S)—N-(1,2,4-thiadiazol-5-yl)-4-((4,4,4-trifluoro-1-phenylbutyl)amino)chroman-7-sulfonamide] | 0.039 |
| CC(C)(C)OC(=O)N1CCN([C@@H]2CCOc3cc(S(=O)(=O)Nc4ncns4)ccc32)[C@H](c2ccc(F)cc2)C1 [Example 216, Tert-butyl (R)-4-((R)-7-(N-(1,2,4-thiadiazol-5-yl)sulfamoyl)chroman-4-yl)-3-(4-fluorophenyl)piperazine-1-carboxylate] | 0.213 |
| CC(C)(C)OC(=O)N1CCN([C@H]2CCOc3cc(S(=O)(=O)Nc4ncns4)ccc32)[C@H](c2ccc(F)cc2)C1 [Example 217, tert-butyl (R)-4-((S)-7-(N-(1,2,4-thiadiazol-5-yl)sulfamoyl)chroman-4-yl)-3-(4-fluorophenyl)piperazine-1-carboxylate] | 0.0183 |
| O=S(=O)(Nc1ncns1)c1ccc2c(c1)OCC[C@@H]2N1CCNC[C@H]1c1ccc(F)cc1 [Example 218, (S)-4-((R)-2-(4-fluorophenyl)piperazin-1-yl)-N-(1,2,4-thiadiazol-5-yl)chromane-7-sulfonamide] | 0.0941 |
| O=S(=O)(Nc1ncns1)c1ccc2c(c1)OCC[C@@H]2N1CCN(CC(F)(F)F)C[C@H]1c1ccc(F)cc1 [Example 219, (S)-4-((R)-2-(4-fluorophenyl)-4-(2,2,2-trifluoroethyl)piperazin-1-yl)-N-(1,2,4-thiadiazol-5-yl)chromane-7-sulfonamide] | 0.00778 |
| O=S(=O)(Nc1ncns1)c1ccc2c(c1)OCC[C@H]2N1CCN(CC(F)(F)F)C[C@H]1c1ccc(F)cc1 [Example 220, (R)-4-((R)-2-(4-fluorophenyl)-4-(2,2,2-trifluoroethyl)piperazin-1-yl)-N-(1,2,4-thiadiazol-5-yl)chromane-7-sulfonamide] | 0.0494 |
| CN1CCN([C@H]2CCOc3cc(S(=O)(=O)Nc4ncns4)ccc32)[C@H](c2ccc(F)cc2)C1 [Example 221, (S)-4-((R)-2-(4-fluorophenyl)-4-methylpiperazin-1-yl)-N-(1,2,4-thiadiazol-5-yl)chromane-7-sulfonamide] | 0.223 |
| O=S(=O)(Nc1ncns1)c1ccc2c(c1)OCC[C@@H]2N1CCN(CC(F)F)C[C@H]1c1ccc(F)cc1 [Example 222, (S)-4-((R)-4-(2,2-difluoroethyl)-2-(4-fluorophenyl)piperazin-1-yl)-N-(1,2,4-thiadiazol-5-yl)chromane-7-sulfonamide] | 0.0262 |
| O=S(=O)(Nc1ncns1)c1ccc2c(c1)OCC[C@@H]2N1CCN(CCF)C[C@H]1c1ccc(F)cc1 [Example 223, (S)-4-((R)-4-(2-fluoroethyl)-2-(4-fluorophenyl)piperazin-1-yl)-N-(1,2,4-thiadiazol-5-yl)chromane-7-sulfonamide] | 0.125 |
| CCN1CCN([C@H]2CCOc3cc(S(=O)(=O)Nc4ncns4)ccc32)[C@H](c2ccc(F)cc2)C1 [Example 224, (S)-4-((R)-4-ethyl-2-(4-fluorophenyl)piperazin-1-yl)-N-(1,2,4-thiadiazol-5-yl)chromane-7-sulfonamide] | 0.174 |
| CS(=O)(=O)N1CCN([C@H]2CCOc3cc(S(=O)(=O)Nc4ncns4)ccc32)[C@H](c2ccc(F)cc2)C1 [Example 226, (S)-4-((R)-2-(4-fluorophenyl)-4-(methylsulfonyl)piperazin-1-yl)-N-(1,2,4-thiadiazol-5-yl)chromane-7-sulfonamide] | 0.0305 |

Continued, values first:

| Nav1.7 (LBA) [µM] | Structure (SMILES) |
| --- | --- |
| 0.0683 | O=S(=O)(Nc1nccs1)c1cc2c(cc1F)[C@H](N1CC[C@H](C(F)(F)F)C[C@@H]1c1ccc(F)cc1)CCO2 [Example 209, (R)-6-fluoro-4-((2R,4S)-2-(4-fluorophenyl)-4-(trifluoromethyl)piperidin-1-yl)-N-(thiazol-2-yl)chromane-7-sulfonamide] |
| 0.0375 | O=S(=O)(Nc1nccs1)c1cc2c(cc1F)[C@H](N1CC[C@@H](C(F)(F)F)C[C@H]1c1ccn[nH]1)CCO2 [Example 210, (R)-4-((2S,4R)-2-(1H-pyrazol-5-yl)-4-(trifluoromethyl)piperidin-1-yl)-6-fluoro-N-(thiazol-2-yl)chromane-7-sulfonamide] |
| 0.0033 | O=S(=O)(Nc1nccs1)c1cc2c(cc1F)[C@@H](N1CC[C@H](C(F)(F)F)C[C@@H]1c1ccn[nH]1)CCO2 [Example 212, (S)-4-((2R,4S)-2-(1H-pyrazol-5-yl)-4-(trifluoromethyl)piperidin-1-yl)-6-fluoro-N-(thiazol-2-yl)chromane-7-sulfonamide] |
| 0.0274 | O=S(=O)(Nc1nccs1)c1cc2c(cc1F)[C@H](N1CC[C@H](C(F)(F)F)C[C@@H]1c1ccn[nH]1)CCO2 [Example 213, (R)-4-((2R,4S)-2-(1H-pyrazol-5-yl)-4-(trifluoromethyl)piperidin-1-yl)-6-fluoro-N-(thiazol-2-yl)chromane-7-sulfonamide] |
| 0.00144 | O=S(=O)(Nc1nccs1)c1cc2c(cc1F)[C@H](N1CC[C@@H](C(F)(F)F)C[C@H]1c1ccc(F)cc1)CCO2 [Example 214, (R)-6-fluoro-4-((2S,4R)-2-(4-fluorophenyl)-4-(trifluoromethyl)piperidin-1-yl)-N-(thiazol-2-yl)chromane-7-sulfonamide] |
| 0.633 | O=S(=O)(Nc1nccs1)c1cc2c(cc1F)[C@@H](N1CC[C@H](C(F)(F)F)C[C@@H]1c1ccc(F)cc1)CCO2 [Example 215, (S)-6-fluoro-4-((2R,4S)-2-(4-fluorophenyl)-4-(trifluoromethyl)piperidin-1-yl)-N-(thiazol-2-yl)chromane-7-sulfonamide] |
| 0.0057 | O=S(=O)(Nc1ncns1)c1ccc2c(c1)OCC[C@@H]2N1CCN(S(=O)(=O)C(F)(F)F)C[C@H]1c1ccc(F)cc1 [Example 225, (S)-4-((R)-2-(4-fluorophenyl)-4-((trifluoromethyl)sulfonyl)piperazin-1-yl)-N-(1,2,4-thiadiazol-5-yl)chromane-7-sulfonamide] |
| 0.00495 | O=S(=O)(Nc1nncs1)c1cc2c(cc1F)[C@@H](N1CC[C@@H](C(F)(F)F)C[C@H]1c1ccc(F)cc1)CCO2 [Example 231, (S)-6-fluoro-4-((2S,4R)-2-(4-fluorophenyl)-4-(trifluoromethyl)piperidin-1-yl)-N-(1,3,4-thiadiazol-2-yl)chroman-7-sulfonamide] |

Reference: patent US10787446B2 (GENENTECH, INC., priority 2015, dated 2020)
